Experiments:
[1] = system: osteocalcin (Ocn) in pre-osteoblastic cell line MC3T3-E1 subclone 4; test: Osteocalcin mRNA levels (qPCR); type: cell-based; conditions: 21 days of differentiation, without ascorbic acid; MK-7 3 μM, VitA 100 nM, VitD 1 nM; FIG. 1B
Procedure: (§1) (A) ALP activity after 7 days of differentiation (without ascorbic acid). (B) Osteocalcin mRNA levels after 21 days of differentiation (without ascorbic acid). (C) Osteocalcin mRNA levels after 28 days of differentiation (with ascorbic acid). Pos=positive control; Neg=negative control; MK-7=supplemented with 3 μM menaquinone-7; VitD=supplemented with 1 nM 1α,25-Dihydroxyvitamin D3; VitA=supplemented with 100 nM all-trans-retinoic acid.
The pre-osteoblastic cell line MC3T3-E1 subclone 4 (CRL-2593) was purchased from ATCC (Manassas; Virginia, USA). Cells were maintained in growth medium (GM) composed of ascorbic acid-free αMEM (ThermoFisher Scientific), supplemented with 10% fetal calf serum (FCS, ThermoFisher Scientific) and 1% penicillin/streptomycin. All culture media were refreshed every 2-3 days. Cells were passaged with trypsin/EDTA solution at less than 80% confluence. To induce differentiation into osteoblasts, cells were seeded at 5×10^4 cells/cm^2 and grown to confluency in GM for 24 h. Then, the medium was switched to differentiation medium (DM) composed of GM supplemented with 10 mM β-glycerophosphate and treatment solutions of interest. Ascorbic acid 50 μg/ml was also added to the DM depending on the experiment.
MC3T3-E1 subclone 4 cells were differentiated for 21 days (in DM without ascorbic acid except for the positive control) or 28 days (in DM containing ascorbic acid). Cells were then collected for gene expression analysis. RNA was extracted using the RNeasy plus mini kit (Qiagen; Hilden, Germany) with the QIAcube (Qiagen,) according to the manufacturer's instructions. Briefly, cells were lysed in RLT buffer and spun in a QIAshredder column (Qiagen) before being processed by the QIAcube. RNA concentrations were measured using the DropSense96 (TRINEAN, Gentbrugge, Belgium).
cDNAs were synthetized using High-Capacity cDNA Reverse Transcription Kit (AppliedBiosystems; Waltham, Massachusetts, USA) according to the manufacturer's instructions. […] The relative gene expression was evaluated via the 2^-ΔCt method.

[2] = system: pre-osteoblastic cell line MC3T3-E1 subclone 4; test: Osteoblast alkaline phosphatase (ALP) activity; type: cell-based; conditions: 7 days of differentiation, without ascorbic acid; MK-7 3 μM, VitA 100 nM all-trans-retinoic acid, VitD 1 nM 1α,25-Dihydroxyvitamin D3; FIG. 1A
Procedure: as §1
ALP activity after 7 days of differentiation (without ascorbic acid). […]
The effect of SCFAs was further investigated. Three mixes of 75% acetate, 20% propionate, 5% butyrate were evaluated to mimic normal physiological conditions (20 μM SCFAs), physiological conditions following prebiotic supplementation (50 μM SCFAs), and physiological conditions following synbiotic supplementation (60 μM SCFAs). […]
After 7 days of differentiation, cells were then collected for alkaline phosphatase (ALP) activity measurement as described previously with minor modifications. […] Enzymatic reaction was monitored at 405 nm after 4-Nitrophenyl phosphate disodium salt hexahydrate addition. Michaelis-Menten kinetics were evaluated at 30° C. for 30 min. […] The activity value was normalized by protein content measured via the Pierce BCA Protein Assay Kit (ThermoFisher Scientific) according to the manufacturer's instructions.

Row | Compound | effect on osteocalcin expression [1] | effect on ALP activity (marker of osteoblast differentiation) [2]
1 | CC1=C(/C=C/C(C)=C/C=C/C(C)=C/C(=O)O)C(C)(C)CCC1 [vitamin A, all-trans-retinoic acid] | no significant effect | 
2 | C=C1/C(=C\C=C2/CCC[C@]3(C)[C@@H]([C@H](C)CCCC(C)(C)O)CC[C@@H]23)C[C@@H](O)C[C@@H]1O [vitamin D, 1α,25-Dihydroxyvitamin D3] | no significant effect | 
3 | CC(C)=CCC/C(C)=C/CC/C(C)=C/CC/C(C)=C/CC/C(C)=C/CC/C(C)=C/CC/C(C)=C/CC1=C(C)C(=O)c2ccccc2C1=O [vitamin K2, menaquinone-7] | significant effect | no significant effect
